Assay: Appearance of the composition and solubilization of the drug
Format: physicochemical
Experimental: Following here is an exemplary description of the manufacturing process used to make the pharmaceutical compositions of the present invention. Generally, the active agent is introduced either alone or as a solution in a colloidal dispersion of carbomer. […] If desired, further ingredients such as cosolvents, buffering agents, antioxidants, preservatives, permeation enhancers, etc, as mentioned herein above were added under mechanical stirring.

## CCCN(CCC)CCc1cccc2c1CC(=O)N2 [ropinirole free base, ropinirole]
Complexation with carbomer, alcohol-free
  Amount of ropinirole free base solubilized in water as a result of complexation with carbomer: at least 3.00 % w/w
No complexation
  Solubility of ropinirole free base in water: practically insoluble in water
